This passage reports EC50 and Emax results from patent US9642831B2, “Substituted chromanes and method of use” (AbbVie S.á.r.l., priority 2014, dated 2017).

In this test the target is F508delCFTR (Homo sapiens, UniProt P13569, DEL508-508). Kind of test: Cell Surface Expression-Horse Radish Peroxidase (CSE-HRP) assay. In kind it is cell-based. Also noted: expressed in transfected cells; host or cells: CFBE41o- human lung derived epithelial cell line, doxycycline-inducible. The settings on record: CFBE4lo-F508delCFTR-HRP cells; for EC50: 18-24 hours at 33° C., 8-point curve, highest concentration 20 μM, luminescence readout; for Emax: maximum % activity at any tested concentration, normalized to on-plate positive control (3 μM Example 1). The source says:
Cell Surface Expression-Horse Radish Peroxidase (CSE-HRP) Assay:
A cellular assay for measuring the F508delCFTR cell surface expression after correction with test compounds was developed in human lung derived epithelial cell line (CFBE4lo-) (Veit G et al, (2012) Mol Biol Cell. 23(21): 4188-4202). This was achieved by expressing the F508delCFTR mutation along with a horseradish peroxidase (HRP) in the fourth exofacial loop and then measuring the HRP activity using luminescence readout from these cells, CFBE4lo-F508delCFTR-HRP, that were incubated overnight with the test corrector compounds. Briefly, for this primary assay, the CFBE4lo-F508delCFTR-HRP cells were plated in 384-well plates (Greiner Bio-one; Cat 781080) at 4,000 cells/well along with 0.5 μg/mL doxycycline to induce the F508delCFTR-HRP expression and further incubated at 37° C., 5% CO2 for 72 hours. The test compounds were then added at the required concentrations and further incubated for 18-24 hours at 33° C. The highest concentration tested was 20 μM with an 8-point concentration response curve using a 3-fold dilution. Three replicate plates were run to determine one EC50. All plates contained negative controls (dimethyl sulfoxide, DMSO) and positive controls (3 μM of 3-[(2R,4R)-4-({[1-(2,2-difluoro-1,3-benzodioxol-5-yl)cyclopropyl]carbonyl}amino)-7-methoxy-3,4-dihydro-2H-chromen-2-yl]benzoic acid) as well as on-plate concentration response of the positive control. Post incubation, the plates were washed 5× times with Dulbecco's phosphate buffered saline (DPBS), followed by the addition of the HRP substrate, luminol (50 μL), and measuring the HRP activity using luminescence readout on EnVision® Multilabel Plate Reader (Perkin Elmer; product number 2104-0010). The raw counts from the experiment are analyzed using Accelrys® Assay Explorer v3.3.
Z′ greater than 0.5 was used as passing quality control criteria for the plates.
The Z′ is defined as: 1−[3*SDPositive Control+3*SDNegative Control/Absolute(MeanPositive Control−MeanNegative Control)] wherein “SD” is standard deviation.
The % activity measured at each of the 8 test concentrations of the test compound was normalized to the on-plate positive control using the following formula: % activity=[(test compound response−DMSO response)/(positive control response−DMSO response)]*100
The maximum % activity achieved for the test compound at any tested concentration is presented in Table 1 along with the EC50 calculated using the following general sigmoidal curve with variable Hill slope equation (described as Model 42 in the Accelrys® Assay Explorer v3.3 software): y=(a−d)/(1+(x/c)^b)+d
General sigmoidal curve with concentration, response, top, bottom, EC50 and Hill slope.
This model describes a sigmoidal curve with an adjustable baseline, a. The equation can be used to fit curves where response is either increasing or decreasing with respect to the independent variable, “x”.
“x” is a concentration of drug under test.
“a” is the maximum response, and “d” is the minimum response
“c” is the inflection point (EC50) for the curve. That is, “y” is halfway between the lower and upper asymptotes when x=c.
“b” is the slope-factor or Hill coefficient. The sign of b is positive when the response increases with increasing dose and is negative when the response decreases with increasing dose (inhibition).

Molecules are shown by their SMILES.

Sequence of F508delCFTR (P13569 with tags, fused parts or gaps DEL508-508): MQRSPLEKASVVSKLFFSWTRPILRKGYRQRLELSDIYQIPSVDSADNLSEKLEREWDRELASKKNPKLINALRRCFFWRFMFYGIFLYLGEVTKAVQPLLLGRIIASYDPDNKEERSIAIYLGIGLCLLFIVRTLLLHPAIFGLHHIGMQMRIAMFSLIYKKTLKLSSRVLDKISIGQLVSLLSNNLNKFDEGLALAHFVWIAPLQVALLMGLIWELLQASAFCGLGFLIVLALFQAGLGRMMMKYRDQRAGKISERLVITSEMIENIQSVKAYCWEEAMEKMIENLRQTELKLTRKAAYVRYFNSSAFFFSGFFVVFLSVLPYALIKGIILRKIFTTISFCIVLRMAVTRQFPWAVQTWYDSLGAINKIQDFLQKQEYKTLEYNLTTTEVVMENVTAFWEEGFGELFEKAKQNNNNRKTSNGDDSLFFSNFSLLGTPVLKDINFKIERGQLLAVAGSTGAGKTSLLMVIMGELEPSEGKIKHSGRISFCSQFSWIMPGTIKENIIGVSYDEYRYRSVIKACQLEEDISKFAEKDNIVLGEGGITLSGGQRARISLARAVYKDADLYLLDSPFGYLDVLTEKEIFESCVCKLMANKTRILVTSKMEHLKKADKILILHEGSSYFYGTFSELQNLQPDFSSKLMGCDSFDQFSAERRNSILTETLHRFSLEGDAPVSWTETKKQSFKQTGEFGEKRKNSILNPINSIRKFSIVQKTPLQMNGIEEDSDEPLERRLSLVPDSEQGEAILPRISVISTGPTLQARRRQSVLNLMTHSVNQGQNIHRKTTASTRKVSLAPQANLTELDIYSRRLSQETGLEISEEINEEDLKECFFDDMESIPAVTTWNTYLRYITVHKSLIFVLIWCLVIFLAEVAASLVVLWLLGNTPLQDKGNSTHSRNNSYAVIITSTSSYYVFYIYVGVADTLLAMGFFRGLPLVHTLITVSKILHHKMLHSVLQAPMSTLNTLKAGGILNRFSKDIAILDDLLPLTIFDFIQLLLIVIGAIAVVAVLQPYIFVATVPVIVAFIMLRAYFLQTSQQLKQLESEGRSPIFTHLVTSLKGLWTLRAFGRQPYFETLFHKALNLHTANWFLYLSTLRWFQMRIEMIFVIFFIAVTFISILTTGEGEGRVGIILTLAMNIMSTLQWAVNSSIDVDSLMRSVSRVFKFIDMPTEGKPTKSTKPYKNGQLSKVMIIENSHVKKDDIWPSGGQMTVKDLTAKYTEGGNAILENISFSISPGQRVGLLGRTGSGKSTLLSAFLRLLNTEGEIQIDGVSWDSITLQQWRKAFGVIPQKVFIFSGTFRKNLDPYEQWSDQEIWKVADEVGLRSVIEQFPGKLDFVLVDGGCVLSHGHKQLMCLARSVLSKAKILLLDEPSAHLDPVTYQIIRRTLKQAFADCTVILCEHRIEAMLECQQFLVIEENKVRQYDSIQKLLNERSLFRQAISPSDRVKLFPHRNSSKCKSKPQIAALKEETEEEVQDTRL

Regarding `O=C(NC1CC(c2ccc(Cl)cc2)Oc2ccccc21)C1(c2ccc3c(c2)OC(F)(F)O3)CC1` (centres unmarked) [Example 68, N-[2-(4-chlorophenyl)-3,4-dihydro-2H-chromen-4-yl]-1-(2,2-difluoro-1,3-benzodioxol-5-yl)cyclopropanecarboxamide], the midpoint of the response, the EC50, lay at 870 nM and the Emax (usually the maximal effect, on the per cent scale that the assay sets) came to 89%.
The like results for `COc1ccc2c(c1)O[C@@H](C(=O)N(CCO)Cc1ccccc1)C[C@@H]2NC(=O)C1(c2ccc3c(c2)OC(F)(F)O3)CC1` (racemic) [Example 184, rac-(2R,4S)—N-benzyl-4-({[1-(2,2-difluoro-1,3-benzodioxol-5-yl)cyclopropyl]carbonyl}amino)-N-(2-hydroxyethyl)-7-methoxy-3,4-dihydro-2H-chromene-2-carboxamide] were, in that order, 580 nM and 73%.
Turning to `COc1ccc2c(c1)O[C@@H](C(=O)N1CCC(C(=O)O)C1)C[C@@H]2NC(=O)C1(c2ccc3c(c2)OC(F)(F)O3)CC1` (mixture of isomers) [Example 201, rac-1-{[(2R,4S)-4-({[1-(2,2-difluoro-1,3-benzodioxol-5-yl)cyclopropyl]carbonyl}amino)-7-methoxy-3,4-dihydro-2H-chromen-2-yl]carbonyl}pyrrolidine-3-carboxylic acid], the 50% effective concentration (EC50) (as a rule, the concentration that produces a half-maximal response) stood at 7920 nM and the Emax stood at 35%.
Consider `COc1ccc2c(c1)O[C@@H](c1nc(C(=O)O)cs1)C[C@H]2NC(=O)C1(c2ccc3c(c2)OC(F)(F)O3)CC1` (stereo in doubt) [Example 156, rel-2-[(2R,4R)-4-({[1-(2,2-difluoro-1,3-benzodioxol-5-yl)cyclopropyl]carbonyl}amino)-7-methoxy-3,4-dihydro-2H-chromen-2-yl]-1,3-thiazole-4-carboxylic acid], for which the 50% effective concentration (EC50) amounted to 1230 nM and the Emax worked out at 112%.
In turn, `COc1ccc2c(c1)O[C@@H](C(=O)NC(CO)CO)C[C@@H]2NC(=O)C1(c2ccc3c(c2)OC(F)(F)O3)CC1` (racemic) [Example 199, rac-(2R,4S)-4-({[1-(2,2-difluoro-1,3-benzodioxol-5-yl)cyclopropyl]carbonyl}amino)-N-(1,3-dihydroxypropan-2-yl)-7-methoxy-3,4-dihydro-2H-chromene-2-carboxamide] gave an EC50 of 6890 nM and an Emax of 27%.
`COc1ccc2c(c1)O[C@@H](C1CCCC(C(=O)O)C1)C[C@H]2NC(=O)C1(c2ccc3c(c2)OC(F)(F)O3)CC1` (stereo partly drawn) [Example 35, 3-[(2R,4R)-4-({[1-(2,2-difluoro-1,3-benzodioxol-5-yl)cyclopropyl]carbonyl}amino)-7-methoxy-3,4-dihydro-2H-chromen-2-yl]cyclohexanecarboxylic acid]: a half-maximal response (EC50) required 1160 nM and the Emax was determined as 82%.
As for `COC(=O)c1cccc([C@H]2C[C@@H](NC(=O)C3(c4ccc5c(c4)OC(F)(F)O5)CC3)c3ccc(OC)cc3O2)c1` [Example 6, methyl 3-[(2R,4R)-4-({[1-(2,2-difluoro-1,3-benzodioxol-5-yl)cyclopropyl]carbonyl}amino)-7-methoxy-3,4-dihydro-2H-chromen-2-yl]benzoate], the response was half-maximal at 380 nM (EC50) and the Emax worked out at 120%.
`COc1ccc2c(c1)O[C@@H](C(=O)NC1c3ccccc3CC1O)C[C@@H]2NC(=O)C1(c2ccc3c(c2)OC(F)(F)O3)CC1` (mixture of isomers) [Example 200, rac-(2R,4S)-4-({[1-(2,2-difluoro-1,3-benzodioxol-5-yl)cyclopropyl]carbonyl}amino)-N-(2-hydroxy-2,3-dihydro-1H-inden-1-yl)-7-methoxy-3,4-dihydro-2H-chromene-2-carboxamide] displayed an EC50 of 2350 nM and a maximal effect (Emax) of 61%.
In turn, `O=C(NC1CC2(CCN(C[C@@H](O)CO)CC2)Oc2cc(F)ccc21)C1(c2ccc3c(c2)OC(F)(F)O3)CC1` (stereo partly drawn) [Example 99, 1-(2,2-difluoro-1,3-benzodioxol-5-yl)-N-{1′-[(2R)-2,3-dihydroxypropyl]-7-fluoro-3,4-dihydrospiro[chromene-2,4′-piperidin]-4-yl}cyclopropanecarboxamide] returned a concentration for a half-maximal effect (EC50) of 3890 nM and an Emax of 56%.
`COc1ccc2c(c1)O[C@@H](c1cccc(C(=O)O)c1)C[C@@H]2NC(=O)C1(c2ccc3c(c2)OC(F)(F)O3)CC1` [Example 2, 3-[(2R,4S)-4-({[1-(2,2-difluoro-1,3-benzodioxol-5-yl)cyclopropyl]carbonyl}amino)-7-methoxy-3,4-dihydro-2H-chromen-2-yl]benzoic acid] had a 50% effective concentration (EC50) of 2710 nM and an Emax of 122%.
Turning to `Cc1ccc2c(c1)O[C@@H](c1cccc(C(=O)N3CC(C)(CO)C3)c1)C[C@H]2NC(=O)C1(c2ccc3c(c2)OC(F)(F)O3)CC1` [Example 55, 1-(2,2-difluoro-1,3-benzodioxol-5-yl)-N-[(2R,4R)-2-(3-{[3-(hydroxymethyl)-3-methylazetidin-1-yl]carbonyl}phenyl)-7-methyl-3,4-dihydro-2H-chromen-4-yl]cyclopropanecarboxamide], a half-maximal response (EC50) required 2110 nM and the maximal effect (Emax) was 101%.
Turning to `COc1ccc2c(c1)O[C@@H](C(=O)Nc1ccccc1O)C[C@@H]2NC(=O)C1(c2ccc3c(c2)OC(F)(F)O3)CC1` (racemic) [Example 182, rac-(2R,4S)-4-({[1-(2,2-difluoro-1,3-benzodioxol-5-yl)cyclopropyl]carbonyl}amino)-N-(2-hydroxyphenyl)-7-methoxy-3,4-dihydro-2H-chromene-2-carboxamide], the EC50 was determined as 800 nM and the maximal response (Emax) amounted to 46%.
Take `CCOC(=O)c1ccc([C@H]2C[C@H](NC(=O)C3(c4ccc5c(c4)OC(F)(F)O5)CC3)c3ccccc3O2)nc1` (racemic) [Example 149, ethyl rac-6-[(2R,4S)-4-({[1-(2,2-difluoro-1,3-benzodioxol-5-yl)cyclopropyl]carbonyl}amino)-3,4-dihydro-2H-chromen-2-yl]pyridine-3-carboxylate]: the half-maximal effective concentration (EC50) turned out to be 1530 nM and the Emax was 85%.
The like results for `COc1ccc2c(c1)O[C@@H](C1CC1)C[C@@H]2NC(=O)C1(c2ccc3c(c2)OC(F)(F)O3)CC1` (racemic) [Example 41, rac-N-[(2R,4S)-2-cyclopropyl-7-methoxy-3,4-dihydro-2H-chromen-4-yl]-1-(2,2-difluoro-3-benzodioxol-5-yl)cyclopropanecarboxamide] were, in that order, 2580 nM and 73%.
On to `CCOC(=O)c1csc([C@H]2C[C@@H](NC(=O)C3(c4ccc5c(c4)OC(F)(F)O5)CC3)c3ccc(OC)cc3O2)n1` (stereo in doubt) [Example 155, ethyl rel-2-[(2R,4R)-4-({[1-(2,2-difluoro-1,3-benzodioxol-5-yl)cyclopropyl]carbonyl}amino)-7-methoxy-3,4-dihydro-2H-chromen-2-yl]-1,3-thiazole-4-carboxylate], for which the response was half-maximal at 370 nM (EC50) and the Emax came to 108%.
`COc1ccc2c(c1)O[C@@H](C(=O)NC(C)(C)CO)C[C@@H]2NC(=O)C1(c2ccc3c(c2)OC(F)(F)O3)CC1` (racemic) [Example 189, rac-(2R,4S)-4-({[1-(2,2-difluoro-1,3-benzodioxol-5-yl)cyclopropyl]carbonyl}amino)-N-(1-hydroxy-2-methylpropan-2-yl)-7-methoxy-3,4-dihydro-2H-chromene-2-carboxamide]: the response was half-maximal at 3830 nM (EC50) and the Emax came to 58%.
